According to ChEMBL document CHEMBL4043250 (Bioorg Med Chem Lett, 2017):

Experiments:
L02 = assay: (§1) Anti-proliferative activity against human L02 cells after 48 hrs by MTT assay; assay type: ADME, cell-based; design: inhibition at 48 h: concentration or dose not given beside the values; settings: Homo sapiens, L02, 48 h
AGS [1] = assay: Anti-proliferative activity against human AGS cells after 48 hrs by MTT assay; assay type: functional, cell-based
[2] = Selectivity index, ratio of IC50 for human L02 cells to IC50 for human AGS cells; assay type: functional
AGS [3] = assay: Growth inhibition of human AGS cells at 100 uM after 48 hrs by MTT assay relative to control; assay type: functional; settings: read-out: GI
[4] = as §1; assay type: ADME, cell-based; design: inhibition at 48 h: concentration or dose not given beside the values; settings: human, L02 cells
AGS [5] = assay: Cell cycle arrest in human AGS cells assessed as accumulation at G2 phase at 0.1 uM after 48 hrs by propidium iodide staining based flow cytometry (reference value: 16.41%); assay type: functional
AGS [6] = assay: Induction of apoptosis in human AGS cells assessed as necrotic cells at 0.1 uM after 48 hrs by Annexin-V-FITC/propidium iodide staining based flow cytometry (reference value: 2%); assay type: functional
AGS [7] = assay: Cell cycle arrest in human AGS cells assessed as accumulation at S phase at 10 uM after 48 hrs by propidium iodide staining based flow cytometry (reference value: 6.57%); assay type: functional
AGS [8] = assay: Induction of apoptosis in human AGS cells assessed as late apoptotic cells at 10 uM after 48 hrs by Annexin-V-FITC/propidium iodide staining based flow cytometry (reference value: 0.3%); assay type: functional
AGS [9] = assay: Cell cycle arrest in human AGS cells assessed as accumulation at G1 phase at 10 uM after 48 hrs by propidium iodide staining based flow cytometry (reference value: 77.02%); assay type: functional
AGS [10] = assay: Cell cycle arrest in human AGS cells assessed as accumulation at S phase at 0.1 uM after 48 hrs by propidium iodide staining based flow cytometry (reference value: 6.57%); assay type: functional
AGS [11] = assay: Induction of apoptosis in human AGS cells assessed as viable cells at 10 uM after 48 hrs by Annexin-V-FITC/propidium iodide staining based flow cytometry (reference value: 97.5%); assay type: functional; settings: read-out: Activity
AGS [12] = assay: Induction of apoptosis in human AGS cells assessed as necrotic cells at 10 uM after 48 hrs by Annexin-V-FITC/propidium iodide staining based flow cytometry (reference value: 2%); assay type: functional
AGS [13] = assay: Induction of apoptosis in human AGS cells assessed as early apoptotic cells at 10 uM after 48 hrs by Annexin-V-FITC/propidium iodide staining based flow cytometry (reference value: 0.2%); assay type: functional
AGS [14] = assay: Induction of apoptosis in human AGS cells assessed as late apoptotic cells at 0.1 uM after 48 hrs by Annexin-V-FITC/propidium iodide staining based flow cytometry (reference value: 0.3%); assay type: functional
AGS [15] = assay: Induction of apoptosis in human AGS cells assessed as viable cells at 0.1 uM after 48 hrs by Annexin-V-FITC/propidium iodide staining based flow cytometry (reference value: 97.5%); assay type: functional; settings: read-out: Activity
AGS [16] = assay: Cell cycle arrest in human AGS cells assessed as accumulation at G1 phase at 0.1 uM after 48 hrs by propidium iodide staining based flow cytometry (reference value: 77.02%); assay type: functional
AGS [17] = assay: Cell cycle arrest in human AGS cells assessed as accumulation at G2 phase at 10 uM after 48 hrs by propidium iodide staining based flow cytometry (reference value: 16.41%); assay type: functional
AGS [18] = assay: Induction of apoptosis in human AGS cells assessed as early apoptotic cells at 0.1 uM after 48 hrs by Annexin-V-FITC/propidium iodide staining based flow cytometry (reference value: 0.2%); assay type: functional

## O=c1ccc2cc3ccoc3c(OCc3cn(-c4ccc(Cl)cc4)nn3)c2o1
L02
  IC50: > 100 µM
AGS [1]
  IC50: 8.2 µM
[2]
  Ratio IC50: >12.2
AGS [3]
  inhibition of growth at 100 µM: 89.6%

## O=c1ccc2cc3ccoc3c(OCc3cn(-c4ccccc4F)nn3)c2o1
AGS [3]
  inhibition of growth at 100 µM: 39.6%

## O=c1ccc2cc3ccoc3c(OCc3nncn3-c3ccc(F)cc3)c2o1
L02
  IC50: 94.2 µM
[4]
  inhibition at 48 h: 53.1%
AGS [1]
  IC50: 13.1 µM
[2]
  Ratio IC50: 7.2
AGS [3]
  inhibition of growth at 100 µM: 72.3%

## O=c1ccc2cc3ccoc3c(OCc3cn(Cc4ccccc4Cl)nn3)c2o1
AGS [3]
  inhibition of growth at 100 µM: 33.2%

## Cc1ccc(-n2cc(COc3c4occc4cc4ccc(=O)oc34)nn2)cc1
L02
  IC50: > 100 µM
AGS [1]
  IC50: 33.2 µM
[2]
  Ratio IC50: >3
AGS [3]
  inhibition of growth at 100 µM: 65.6%

## Cc1ccc(Cn2cc(COc3c4occc4cc4ccc(=O)oc34)nn2)cc1
AGS [3]
  inhibition of growth at 100 µM: 47%

## COc1ccc(-n2cnnc2COc2c3occc3cc3ccc(=O)oc23)cc1
AGS [3]
  inhibition of growth at 100 µM: 34.4%

## O=c1ccc2cc3ccoc3c(OCc3nncn3-c3ccc(Cl)cc3)c2o1
AGS [3]
  inhibition of growth at 100 µM: 40.3%

## O=c1ccc2cc3ccoc3c(OCc3nncn3-c3ccccc3)c2o1
AGS [3]
  inhibition of growth at 100 µM: 40.1%

## O=c1ccc2cc3ccoc3c(OCc3cn(-c4ccc(F)cc4)nn3)c2o1
L02
  IC50: > 100 µM
AGS [1]
  IC50: 10.7 µM
[2]
  Ratio IC50: >9.3
AGS [3]
  inhibition of growth at 100 µM: 70.4%

## Cc1ccc(-n2cnnc2COc2c3occc3cc3ccc(=O)oc23)cc1
AGS [3]
  inhibition of growth at 100 µM: 39.4%

## O=c1ccc2cc3ccoc3c(OCc3cn(Cc4ccc(Cl)cc4Cl)nn3)c2o1
L02
  IC50: 90.2 µM
AGS [1]
  IC50: 26.5 µM
[2]
  Ratio IC50: 3.4
AGS [3]
  inhibition of growth at 100 µM: 67.7%

## O=c1ccc2cc3ccoc3c(OCc3cn(Cc4ccccc4F)nn3)c2o1
AGS [3]
  inhibition of growth at 100 µM: 25.5%

## O=c1ccc2cc3ccoc3c(OCc3nncn3-c3ccc(C(F)(F)F)cc3)c2o1
L02
  IC50: > 100 µM
AGS [1]
  IC50: 41 µM
[2]
  Ratio IC50: >2.4
AGS [3]
  inhibition of growth at 100 µM: 52.9%

## O=c1ccc2cc3ccoc3c(OCc3cn(Cc4cccc(C(F)(F)F)c4)nn3)c2o1
L02
  IC50: > 100 µM
AGS [1]
  IC50: > 100 µM
AGS [3]
  inhibition of growth at 100 µM: 51.7%

## O=c1ccc2cc3ccoc3c(OCc3cn(Cc4ccc(F)cc4)nn3)c2o1
AGS [3]
  inhibition of growth at 100 µM: 43.1%

## O=c1ccc2cc3ccoc3c(OCc3cn(Cc4cccc(Cl)c4)nn3)c2o1
AGS [3]
  inhibition of growth at 100 µM: 49.5%

## O=c1ccc2cc3ccoc3c(OCc3nncn3-c3ccccc3Cl)c2o1
AGS [3]
  inhibition of growth at 100 µM: 45.2%

## O=c1ccc2cc3ccoc3c(OCc3cn(-c4ccc(C(F)(F)F)cc4)nn3)c2o1
AGS [5]
  Activity: 31.73%
AGS [6]
  Activity: 1.8%
AGS [7]
  Activity: 12.08%
AGS [8]
  Activity: 1%
AGS [9]
  Activity: 49.76%
AGS [10]
  Activity: 7.17%
L02
  IC50: > 100 µM
[4]
  inhibition at 48 h: 33.9%
AGS [1]
  IC50: 7.5 µM
AGS [11]
  viability at 10 µM: 96.4%
AGS [12]
  Activity: 1.7%
AGS [13]
  Activity: 0.9%
[2]
  Ratio IC50: >13.3
AGS [14]
  Activity: 0.8%
AGS [3]
  inhibition of growth at 100 µM: 92.4%
AGS [15]
  viability at 0.1 µM: 96.2%
AGS [16]
  Activity: 61.1%
AGS [17]
  Activity: 38.17%
AGS [18]
  Activity: 0.3%

## Cc1nncn1-c1ccc(F)cc1
L02
  IC50: > 100 µM
[4]
  inhibition at 48 h: 16.9%
AGS [1]
  IC50: > 100 µM
AGS [3]
  inhibition of growth at 100 µM: 13.9%

## O=c1ccc2cc3ccoc3c(OCc3cn(-c4ccccc4)nn3)c2o1
AGS [3]
  inhibition of growth at 100 µM: 46.4%

## COc1ccc(-n2cc(COc3c4occc4cc4ccc(=O)oc34)nn2)cc1
L02
  IC50: > 100 µM
AGS [1]
  IC50: 94.6 µM
[2]
  Ratio IC50: >1.1
AGS [3]
  inhibition of growth at 100 µM: 53.2%

## O=c1ccc2cc3ccoc3c(OCc3cn(Cc4ccccc4)nn3)c2o1
AGS [3]
  inhibition of growth at 100 µM: 24.4%

## O=c1ccc2cc3ccoc3c(OCc3cn(Cc4c(Cl)cccc4Cl)nn3)c2o1
AGS [3]
  inhibition of growth at 100 µM: 32.5%

## O=c1ccc2cc3ccoc3c(OCc3cn(Cc4cccc(F)c4)nn3)c2o1
AGS [3]
  inhibition of growth at 100 µM: 30.1%

## O=c1ccc2cc3ccoc3c(OCc3cn(Cc4ccc(Cl)cc4)nn3)c2o1
L02
  IC50: > 100 µM
AGS [1]
  IC50: 93.2 µM
[2]
  Ratio IC50: >1.1
AGS [3]
  inhibition of growth at 100 µM: 53.2%

## Cc1cn(-c2ccc(C(F)(F)F)cc2)nn1
L02
  IC50: > 100 µM
[4]
  inhibition at 48 h: 9.4%
AGS [1]
  IC50: > 100 µM
AGS [3]
  inhibition of growth at 100 µM: 44.5%

## O=c1[nH]cc(F)c(=O)[nH]1 [FLUOROURACIL]
AGS [1]
  IC50: 29.6 µM
AGS [3]
  inhibition of growth at 100 µM: 74.9%

## COc1c2occc2cc2ccc(=O)oc12 [METHOXSALEN]
L02
  IC50: > 100 µM
[4]
  inhibition at 48 h: 3.3%
AGS [1]
  IC50: > 100 µM
AGS [3]
  inhibition of growth at 100 µM: 35.3%
